Test results reported in publication PMC7839254 (FASEB journal : official publication of the Federation of …, 2021).
Changes are numbered by the printed parent chain.

Key:
Experiment in all cases: isothermal titration calorimetry
Type in all cases: binding
[1] = molecular target: T1, human DIPP1 (DIPP1 1-148) (Homo sapiens, UniProt O95989)
T1 sequence (O95989 1-148): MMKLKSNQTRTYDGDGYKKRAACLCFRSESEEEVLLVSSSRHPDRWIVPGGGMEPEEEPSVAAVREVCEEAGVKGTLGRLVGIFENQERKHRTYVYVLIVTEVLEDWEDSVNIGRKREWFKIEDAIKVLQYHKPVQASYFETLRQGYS

[2] = molecular target: T2, human DIPP1 (DIPP1 1-148) (Homo sapiens, UniProt O95989, R41A)
T2 sequence (O95989 1-148 R41A): T1 sequence (O95989 1-148) with R41A

[3] = molecular target: T3, human DIPP1 (DIPP1 1-148) (Homo sapiens, UniProt O95989, R45A)
T3 sequence (O95989 1-148 R45A): T1 sequence (O95989 1-148) with R45A

[4] = molecular target: T4, human DIPP1 (DIPP1 1-148) (Homo sapiens, UniProt O95989, K18A)
T4 sequence (O95989 1-148 K18A): T1 sequence (O95989 1-148) with K18A

[5] = molecular target: T5, human DIPP1 (DIPP1 1-148) (Homo sapiens, UniProt O95989, H42A/R45A)
T5 sequence (O95989 1-148 H42A/R45A): T1 sequence (O95989 1-148) with H42A, R45A

[6] = molecular target: T6, human DIPP1 (DIPP1 1-148) (Homo sapiens, UniProt O95989, H42A)
T6 sequence (O95989 1-148 H42A): T1 sequence (O95989 1-148) with H42A

Row | SMILES | Kd [1] | Kd [2] | Kd [3] | Kd [4] | Kd [5] | Kd [6]
1 | O=P(O)(O)O[C@@H]1[C@@H](OP(=O)(O)OP(=O)(O)O)[C@H](OP(=O)(O)O)[C@@H](OP(=O)(O)O)[C@@H](O)[C@H]1OP(=O)(O)O [5-PP-InsP4, 5-diphosphoinositol 1,3,4,6-tetrakisphosphate] | 251 ± 31 nM | – | – | – | – | –
2 | O=P(O)(O)O[C@@H]1[C@@H](OP(=O)(O)O)[C@H](OP(=O)(O)OP(=O)(O)O)[C@@H](OP(=O)(O)O)[C@H](OP(=O)(O)OP(=O)(O)O)[C@@H]1OP(=O)(O)O [1,5-InsP8, 1,5-bis-diphosphoinositol 2,3,4,6-tetrakisphosphate] | 158 ± 9 nM | 460 ± 50 nM | 360 ± 50 nM | 4990 ± 620 nM | 1060 ± 90 nM | 510 ± 100 nM
